The source of these data is EP0071087A1, “Improved determination of creatine phosphokinase in body fluids” (SERAGEN DIAGNOSTICS, INC., priority 1981, dated 1983).

The target in this assay is T1, Purified Human Erythrocyte Adenylate Kinase (Homo sapiens, UniProt P00568).
T1 construct: from tissue; host or cells: human erythrocytes
T1 sequence (P00568 1-194): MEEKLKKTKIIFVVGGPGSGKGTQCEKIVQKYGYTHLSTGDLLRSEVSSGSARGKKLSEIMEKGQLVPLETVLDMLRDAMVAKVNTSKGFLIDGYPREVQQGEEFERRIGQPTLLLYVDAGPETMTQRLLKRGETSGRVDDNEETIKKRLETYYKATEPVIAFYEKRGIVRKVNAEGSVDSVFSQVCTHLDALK
Description: Inhibition of purified human erythrocyte adenylate kinase in a CPK-UV (Oliver-Rosalki) assay. It is filed as biochemical. The conditions noted are these: 37°C. How it is done: Table I illustrates the utilization of a high AMP/ ADP ratio in inhibiting purified human erythrocyte adenylate kinase. Residual AK activity is measured in reagent systems containing all necessary components of the Oliver-Rosalki CPK assay. The systems vary as a function of three components: AMP, ADP, and sodium fluoride. The data points cover a 1.43-5.72m Mole/liter ADP range and a 2.9-29.2m Mole/liter AMP range plus or minus 6m Mole/ liter NaF.
The reagents of Example 1 and 2 were utilized with the AMP and ADP concentration listed in the table, with or without 6 m mole/liter sodium fluoride.

In the case of `Nc1ncnc2c1ncn2[C@@H]1O[C@H](COP(=O)(O)O)[C@@H](O)[C@H]1O` [AMP, adenosine monophosphate], the “Measured Residual Adenylate Kinase (+NaF)” value stood at 24 U/l (ADP 1.43 mM, AMP 2.9 mM, AMP/ADP 2.0, 6 m mole/liter NaF); 13 U/l (ADP 1.43 mM, AMP 5.8 mM, AMP/ADP 4.1, 6 m mole/liter NaF); 10 U/l (ADP 1.43 mM, AMP 7.3 mM, AMP/ADP 5.1, 6 m mole/liter NaF); 7.7 U/l (ADP 1.43 mM, AMP 10.2 mM, AMP/ADP 7.1, 6 m mole/liter NaF); 5.3 U/l (ADP 1.43 mM, AMP 14.6 mM, AMP/ADP 10.2, 6 m mole/liter NaF); 4.6 U/l (ADP 1.43 mM, AMP 21.9 mM, AMP/ADP 15.3, 6 m mole/liter NaF). Moreover, the “Measured Residual Adenylate Kinase (+NaF)” value (ADP 1.43 mM, AMP 29.2 mM, AMP/ADP 20.4, 6 m mole/liter NaF) worked out at 1.7 U/l; the “Measured Residual Adenylate Kinase (+NaF)” value (ADP 2.86 mM, AMP 2.9 mM, AMP/ADP 1.0, 6 m mole/liter NaF) was determined as 51 U/l; the “Measured Residual Adenylate Kinase (+NaF)” value (ADP 2.86 mM, AMP 5.8 mM, AMP/ADP 2.0, 6 m mole/liter NaF) is reported as 26 U/l; the “Measured Residual Adenylate Kinase (+NaF)” value (ADP 2.86 mM, AMP 7.3 mM, AMP/ADP 2.6, 6 m mole/liter NaF) worked out at 22 U/l; the “Measured Residual Adenylate Kinase (+NaF)” value (ADP 2.86 mM, AMP 10.2 mM, AMP/ADP 3.6, 6 m mole/liter NaF) was found to be 17 U/l; the “Measured Residual Adenylate Kinase (+NaF)” value (ADP 2.86 mM, AMP 14.6 mM, AMP/ADP 5.1, 6 m mole/liter NaF) stood at 13 U/l. Further, the “Measured Residual Adenylate Kinase (+NaF)” value reads like this: (ADP 2.86 mM, AMP 21.9 mM, AMP/ADP 7.7, 6 m mole/liter NaF) 10 U/l; (ADP 2.86 mM, AMP 29.2 mM, AMP/ADP 10.2, 6 m mole/liter NaF) 5.3 U/l; (ADP 5.72 mM, AMP 2.9 mM, AMP/ADP 0.51, 6 m mole/liter NaF) 108 U/l; (ADP 5.72 mM, AMP 5.8 mM, AMP/ADP 1.0, 6 m mole/liter NaF) 55 U/l; (ADP 5.72 mM, AMP 7.3 mM, AMP/ADP 1.3, 6 m mole/liter NaF) 54 U/l; (ADP 5.72 mM, AMP 10.2 mM, AMP/ADP 1.8, 6 m mole/liter NaF) 37 U/l. Also, the “Measured Residual Adenylate Kinase (+NaF)” value came to 31 U/l (ADP 5.72 mM, AMP 14.6 mM, AMP/ADP 2.6, 6 m mole/liter NaF); 21 U/l (ADP 5.72 mM, AMP 21.9 mM, AMP/ADP 3.8, 6 m mole/liter NaF); 13 U/l (ADP 5.72 mM, AMP 29.2 mM, AMP/ADP 5.1, 6 m mole/liter NaF). Further, the “Measured Residual Adenylate Kinase (-NaF)” value (ADP 1.43 mM, AMP 2.9 mM, AMP/ADP 2.0, no NaF) came out at 103 U/l; the “Measured Residual Adenylate Kinase (-NaF)” value (ADP 1.43 mM, AMP 5.8 mM, AMP/ADP 4.1, no NaF) worked out at 61 U/l; the “Measured Residual Adenylate Kinase (-NaF)” value (ADP 1.43 mM, AMP 7.3 mM, AMP/ADP 5.1, no NaF) stood at 56 U/l; the “Measured Residual Adenylate Kinase (-NaF)” value (ADP 1.43 mM, AMP 10.2 mM, AMP/ADP 7.1, no NaF) is given as 35 U/l; the “Measured Residual Adenylate Kinase (-NaF)” value (ADP 1.43 mM, AMP 14.6 mM, AMP/ADP 10.2, no NaF) was determined as 333 U/l; the “Measured Residual Adenylate Kinase (-NaF)” value (ADP 1.43 mM, AMP 21.9 mM, AMP/ADP 15.3, no NaF) came to 19 U/l. The “Measured Residual Adenylate Kinase (-NaF)” value (ADP 1.43 mM, AMP 29.2 mM, AMP/ADP 20.4, no NaF) is recorded as 17 U/l; the “Measured Residual Adenylate Kinase (-NaF)” value (ADP 2.86 mM, AMP 2.9 mM, AMP/ADP 1.0, no NaF) came to 166 U/l; the “Measured Residual Adenylate Kinase (-NaF)” value (ADP 2.86 mM, AMP 5.8 mM, AMP/ADP 2.0, no NaF) was found to be 126 U/l; the “Measured Residual Adenylate Kinase (-NaF)” value (ADP 2.86 mM, AMP 7.3 mM, AMP/ADP 2.6, no NaF) is 93 U/l; the “Measured Residual Adenylate Kinase (-NaF)” value (ADP 2.86 mM, AMP 10.2 mM, AMP/ADP 3.6, no NaF) was determined as 84 U/l; the “Measured Residual Adenylate Kinase (-NaF)” value (ADP 2.86 mM, AMP 14.6 mM, AMP/ADP 5.1, no NaF) was determined as 64 U/l. Moreover, the “Measured Residual Adenylate Kinase (-NaF)” value came to 32 U/l (ADP 2.86 mM, AMP 21.9 mM, AMP/ADP 7.7, no NaF); 28 U/l (ADP 2.86 mM, AMP 29.2 mM, AMP/ADP 10.2, no NaF); 203 U/l (ADP 5.72 mM, AMP 2.9 mM, AMP/ADP 0.51, no NaF); 186 U/l (ADP 5.72 mM, AMP 5.8 mM, AMP/ADP 1.0, no NaF); 126 U/l (ADP 5.72 mM, AMP 7.3 mM, AMP/ADP 1.3, no NaF); 114 U/l (ADP 5.72 mM, AMP 10.2 mM, AMP/ADP 1.8, no NaF). For the same compound, the “Measured Residual Adenylate Kinase (-NaF)” value is listed as 108 U/l (ADP 5.72 mM, AMP 14.6 mM, AMP/ADP 2.6, no NaF); 66 U/l (ADP 5.72 mM, AMP 21.9 mM, AMP/ADP 3.8, no NaF); 62 U/l (ADP 5.72 mM, AMP 29.2 mM, AMP/ADP 5.1, no NaF).
Turning to sodium fluoride [NaF], the “Measured Residual Adenylate Kinase (+NaF)” value stood at 327 U/l (ADP 1.43 mM, AMP 0 mM, 6 m mole/liter NaF); 398 U/l (ADP 2.86 mM, AMP 0 mM, 6 m mole/liter NaF); 460 U/l (ADP 5.72 mM, AMP 0 mM, 6 m mole/liter NaF).
